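Test compounds were applied to cells in 96-well plates for 48 hours at 5 doses. GI50 is the concentration that inhibits growth by half.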 Calls of active or inactive are those of the source. Rule as the data show it: active = GI50 up to about 1.1 µM and inactive = higher.
Legend:
Experiment in all cases: DTP human tumour cell line panel, 48 h
NCI-H226 = system: NCI-H226
U-251 = system: U-251
A549 = system: A549
OVCAR-5 = system: OVCAR-5
SK-MEL-28 = system: SK-MEL-28
NCI-H23 = system: NCI-H23
TK-10 = system: TK-10
EKVX = system: EKVX
COLO 205 = system: COLO 205
K562 = system: K562
NCI-H460 = system: NCI-H460
HT-29 = system: HT-29
LOX IMVI = system: LOX IMVI
MCF7 = system: MCF7
SNB-75 = system: SNB-75
SK-MEL-2 = system: SK-MEL-2
SK-OV-3 = system: SK-OV-3
786-0 = system: 786-0
OVCAR-8 = system: OVCAR-8

Compound: COc1cc(/C=C2\C[C@H]3[C@@H]4CC=C5C[C@@H](N6CCCC6)CC[C@]5(C)[C@H]4CC[C@]3(C)[C@H]2O)cc(OC)c1OC
- GI50 (NCI-H226): 21.2 µM (inactive)
- GI50 (U-251): 15.4 µM (inactive)
- GI50 (A549): 10.6 µM (inactive)
- GI50 (OVCAR-5): 8.79 µM (inactive)
- GI50 (SK-MEL-28): 17.4 µM (inactive)
- GI50 (NCI-H23): 14.9 µM (inactive)
- GI50 (TK-10): 20.3 µM (inactive)
- GI50 (EKVX): 16.1 µM (inactive)
- GI50 (COLO 205): 14.8 µM (inactive)
- GI50 (K562): 13 µM (inactive)
- GI50 (NCI-H460): 3.78 µM (inactive)
- GI50 (HT-29): 3.38 µM (inactive)
- GI50 (LOX IMVI): 8.57 µM (inactive)
- GI50 (MCF7): 8.71 µM (inactive)
- GI50 (SNB-75): 12.1 µM (inactive)
- GI50 (SK-MEL-2): 19.5 µM (inactive)
- GI50 (SK-OV-3): 18.6 µM (inactive)
- GI50 (786-0): 4.11 µM (inactive)
- GI50 (OVCAR-8): 11 µM (inactive)

Compound: CCCN1C(=O)C/C(=C\C(C)=O)Nc2ccccc21
- GI50 (NCI-H226): 37.2 µM (inactive)
- GI50 (U-251): > 100 µM (inactive)
- GI50 (A549): > 100 µM (inactive)
- GI50 (OVCAR-5): > 100 µM (inactive)
- GI50 (SK-MEL-28): > 100 µM (inactive)
- GI50 (NCI-H23): > 100 µM (inactive)
- GI50 (TK-10): > 100 µM (inactive)
- GI50 (EKVX): > 100 µM (inactive)
- GI50 (COLO 205): 86.3 µM (inactive)
- GI50 (K562): > 100 µM (inactive)
- GI50 (NCI-H460): > 100 µM (inactive)
- GI50 (HT-29): > 100 µM (inactive)
- GI50 (LOX IMVI): > 100 µM (inactive)
- GI50 (SNB-75): > 100 µM (inactive)
- GI50 (SK-MEL-2): > 100 µM (inactive)
- GI50 (SK-OV-3): > 100 µM (inactive)
- GI50 (786-0): > 100 µM (inactive)
- GI50 (OVCAR-8): > 100 µM (inactive)

Compound: O=c1cc2ccccc2nn1-c1ccccc1Cl
- GI50 (NCI-H226): > 100 µM (inactive)
- GI50 (U-251): > 100 µM (inactive)
- GI50 (A549): > 100 µM (inactive)
- GI50 (OVCAR-5): > 100 µM (inactive)
- GI50 (SK-MEL-28): > 100 µM (inactive)
- GI50 (NCI-H23): 67.9 µM (inactive)
- GI50 (TK-10): > 100 µM (inactive)
- GI50 (EKVX): > 100 µM (inactive)
- GI50 (COLO 205): > 100 µM (inactive)
- GI50 (K562): 59.6 µM (inactive)
- GI50 (NCI-H460): > 100 µM (inactive)
- GI50 (HT-29): > 100 µM (inactive)
- GI50 (LOX IMVI): > 100 µM (inactive)
- GI50 (SNB-75): 59.6 µM (inactive)
- GI50 (SK-MEL-2): > 100 µM (inactive)
- GI50 (SK-OV-3): > 100 µM (inactive)
- GI50 (786-0): > 100 µM (inactive)
- GI50 (OVCAR-8): > 100 µM (inactive)

Compound: ClC1(c2ccccc2)c2ccc(Br)cc2-c2cc(Br)ccc21
- GI50 (NCI-H226): 17.4 µM (inactive)
- GI50 (U-251): 17.6 µM (inactive)
- GI50 (A549): 17.1 µM (inactive)
- GI50 (OVCAR-5): 17.3 µM (inactive)
- GI50 (SK-MEL-28): 18.8 µM (inactive)
- GI50 (NCI-H23): 15 µM (inactive)
- GI50 (TK-10): 19 µM (inactive)
- GI50 (EKVX): 17.9 µM (inactive)
- GI50 (COLO 205): 17.7 µM (inactive)
- GI50 (K562): > 100 µM (inactive)
- GI50 (NCI-H460): 14.3 µM (inactive)
- GI50 (HT-29): 12.3 µM (inactive)
- GI50 (LOX IMVI): 17.8 µM (inactive)
- GI50 (MCF7): 19 µM (inactive)
- GI50 (SK-MEL-2): 17.8 µM (inactive)
- GI50 (SK-OV-3): 17.6 µM (inactive)
- GI50 (786-0): 16.6 µM (inactive)
- GI50 (OVCAR-8): 18.2 µM (inactive)

Compound: COC1=CC(=O)c2c(cc3c(c2O)-c2c(OC)cc4cc5c(c(O)c4c2OC(=O)CC(C)(O)C3)C(=O)CC(C)(O)C5)C1=O (stereo not drawn)
- GI50 (NCI-H226): 1.84 µM (inactive)
- GI50 (U-251): 2.77 µM (inactive)
- GI50 (A549): 2.68 µM (inactive)
- GI50 (OVCAR-5): 2.14 µM (inactive)
- GI50 (SK-MEL-28): 1.32 µM (inactive)
- GI50 (NCI-H23): 0.624 µM (active)
- GI50 (TK-10): 3.85 µM (inactive)
- GI50 (EKVX): 2.27 µM (inactive)
- GI50 (COLO 205): 1.57 µM (inactive)
- GI50 (K562): 2.44 µM (inactive)
- GI50 (NCI-H460): 1.31 µM (inactive)
- GI50 (HT-29): 1.96 µM (inactive)
- GI50 (LOX IMVI): 1.22 µM (inactive)
- GI50 (SNB-75): 1.29 µM (inactive)
- GI50 (SK-MEL-2): 1.28 µM (inactive)
- GI50 (SK-OV-3): 2.76 µM (inactive)
- GI50 (786-0): 2.65 µM (inactive)
- GI50 (OVCAR-8): 1.55 µM (inactive)

Compound: CC(O)[C@@]1(c2ccccc2)CC2(CCN(C)CC2)O[C@H]1C (stereo partly drawn)
- GI50 (NCI-H226): > 100 µM (inactive)
- GI50 (U-251): > 100 µM (inactive)
- GI50 (A549): > 100 µM (inactive)
- GI50 (OVCAR-5): > 100 µM (inactive)
- GI50 (SK-MEL-28): > 100 µM (inactive)
- GI50 (NCI-H23): > 100 µM (inactive)
- GI50 (TK-10): > 100 µM (inactive)
- GI50 (EKVX): > 100 µM (inactive)
- GI50 (COLO 205): > 100 µM (inactive)
- GI50 (K562): > 100 µM (inactive)
- GI50 (NCI-H460): > 100 µM (inactive)
- GI50 (HT-29): > 100 µM (inactive)
- GI50 (LOX IMVI): > 100 µM (inactive)
- GI50 (MCF7): > 100 µM (inactive)
- GI50 (SNB-75): > 100 µM (inactive)
- GI50 (SK-MEL-2): > 100 µM (inactive)
- GI50 (SK-OV-3): 41 µM (inactive)
- GI50 (786-0): > 100 µM (inactive)
- GI50 (OVCAR-8): > 100 µM (inactive)

Compound: Cc1cc(=O)cc2sc3cc(Cl)ccc3nc1-2
- GI50 (NCI-H226): 25.4 µM (inactive)
- GI50 (U-251): 6.53 µM (inactive)
- GI50 (A549): 4.49 µM (inactive)
- GI50 (OVCAR-5): 21.1 µM (inactive)
- GI50 (SK-MEL-28): 17.8 µM (inactive)
- GI50 (NCI-H23): 13.7 µM (inactive)
- GI50 (TK-10): 25.4 µM (inactive)
- GI50 (EKVX): 4.72 µM (inactive)
- GI50 (COLO 205): 22.3 µM (inactive)
- GI50 (K562): 4.09 µM (inactive)
- GI50 (NCI-H460): 7.55 µM (inactive)
- GI50 (HT-29): 20.3 µM (inactive)
- GI50 (LOX IMVI): 11.9 µM (inactive)
- GI50 (SNB-75): 3.24 µM (inactive)
- GI50 (SK-MEL-2): 7.01 µM (inactive)
- GI50 (SK-OV-3): 20.7 µM (inactive)
- GI50 (786-0): 12 µM (inactive)
- GI50 (OVCAR-8): 8.99 µM (inactive)
